Data from patent US9598423B2 (BRISTOL-MYERS SQUIBB COMPANY, priority 2013, dated 2017).

target: CK1ε (Homo sapiens (Human), UniProt P49674); test: CK1ε kinase assay (Caliper LABCHIP electrophoretic separation of fluoresceinated peptide substrate and product); type: biochemical; settings: 200 pM CK1ε, 50 μM ATP, 1.5 μM peptide substrate, 22 hours at room temperature; read-out: CK1ε (IC50)
Protocol: CK1ε and CK1δ Kinase Assays
The kinase assay was performed in V-bottom 384-well plates. […] The reaction was incubated at room temperature for 22 hours and terminated by adding 45 μl of 35 mM EDTA to each sample. The reaction mixture was analyzed on the Caliper LABCHIP®3000 (Caliper, Hopkinton, Mass.) by electrophoretic separation of the unphosphorylated substrate and phosphorylated product. […] Compounds were dissolved at 10 mM in dimethylsulfoxide (DMSO) and evaluated at eleven concentrations. IC50 values were derived by non-linear regression analysis.

CK1ε, sequence (P49674 whole entry): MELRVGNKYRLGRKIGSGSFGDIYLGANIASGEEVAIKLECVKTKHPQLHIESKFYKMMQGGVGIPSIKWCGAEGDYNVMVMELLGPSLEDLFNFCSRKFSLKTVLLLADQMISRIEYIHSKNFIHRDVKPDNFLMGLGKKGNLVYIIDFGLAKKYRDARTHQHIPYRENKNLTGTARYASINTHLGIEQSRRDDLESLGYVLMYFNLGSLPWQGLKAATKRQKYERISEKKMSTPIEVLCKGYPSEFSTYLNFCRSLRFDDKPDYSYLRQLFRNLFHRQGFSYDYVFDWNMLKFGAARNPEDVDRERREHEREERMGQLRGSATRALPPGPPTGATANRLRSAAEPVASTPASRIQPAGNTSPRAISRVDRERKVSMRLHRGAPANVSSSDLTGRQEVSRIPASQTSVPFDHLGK

| Compound | IC50 |
| --- | --- |
| Cc1cc(-c2nn3c(c2C(N)=O)CN(C(=O)Nc2ccc(C#N)c(C)c2)CC3)ccc1F [Compound 239, N^5-(4-Cyano-3-methylphenyl)-2-(4-fluoro-3-methylphenyl)-6,7-dihydropyrazolo[1,5-a]pyrazine-3,5(4H)-dicarboxamide] | 0.01 to 10 nM |
| N#Cc1ccc(NC(=O)N2CCn3nc(-c4cc(Cl)c5cncn5c4)c(C(N)=O)c3C2)cc1 [Compound 308, 2-(8-Chloroimidazo[1,5-a]pyridin-6-yl)-N-(4-cyanophenyl)-6,7-dihydropyrazolo[1,5-a]pyrazine-3,5(4H)-dicarboxamide] | 0.01 to 10 nM |
| Cc1cc(C)cc(-c2nn3c(c2C(N)=O)CN(C(=O)NC(C)(C)C)CC3)c1 [Compound 128, N^5-(tert-Butyl)-2-(3,5-dimethylphenyl)-6,7-dihydropyrazolo[1,5-a]pyrazine-3,5(4H)-dicarboxamide] | 0.01 to 10 nM |
| N#Cc1ccc(NC(=O)N2CCn3nc(-c4ccc(C5CC5)c(Cl)c4)c(C(N)=O)c3C2)cc1 [Compound 258, 2-(3-Chloro-4-cyclopropylphenyl)-N^5-(4-cyanophenyl)-6,7-dihydropyrazolo[1,5-a]pyrazine-3,5(4H)-dicarboxamide] | 0.01 to 10 nM |
| CN(C)c1cc(Cl)cc(-c2nn3c(c2C(N)=O)CN(C(=O)Nc2ccc(C#N)c(Cl)c2)CC3)c1 [Compound 268, N^5-(3-Chloro-4-cyanophenyl)-2-(3-chloro-5-(dimethyl-amino)phenyl)-6,7-dihydropyrazolo[1,5-a] pyrazine-3,5(4H)-dicarboxamide] | 0.01 to 10 nM |
| Cc1cc(NC(=O)N2CCn3nc(-c4cc(Cl)cc(N(C)C)c4)c(C(N)=O)c3C2)ccc1C#N [Compound 267, 2-(3-Chloro-5-(dimethylamino)phenyl)-N^5-(4-cyano-3-methylphenyl)-6,7-dihydropyrazolo[1,5-a] pyrazine-3,5(4H)-dicarboxamide] | 0.01 to 10 nM |
| NC(=O)c1c(-c2cccc(F)c2)nn2c1CN(C(=O)NC13C[C@@H]4CC1C[C@@H](C4)C3)CC2 [Compound 23, 2-(3-Fluorophenyl)-N^5-((2R,5S)-octahydro-2,5-methanopentalen-6a-yl)-6,7-dihydropyrazolo[1,5-a]pyrazine-3,5(4H)-dicarboxamide] | 0.01 to 10 nM |
| N#Cc1ccc(NC(=O)N2CCn3nc(-c4cnc(F)c(Cl)c4)c(C(N)=O)c3C2)cc1F [Compound 295, 2-(5-Chloro-6-fluoropyridin-3-yl)-N^5-(4-cyano-3-fluorophenyl)-6,7-dihydropyrazolo[1,5-a] pyrazine-3,5(4H)-dicarboxamide] | 0.01 to 10 nM |
| N#Cc1ccc(NC(=O)N2CCn3nc(-c4cc(Cl)c5ocnc5c4)c(C(N)=O)c3C2)cc1 [Compound 309, 2-(7-Chlorobenzo[d]oxazol-5-yl)-N^5-(4-cyanophenyl)-6,7-dihydropyrazolo[1,5-a]pyrazine-3,5(4H)-dicarboxamide] | 0.01 to 10 nM |
| N#Cc1ccc(NC(=O)N2CCn3nc(-c4cc(Cl)c5[nH]ncc5c4)c(C(N)=O)c3C2)cc1 [Compound 315, 2-(7-Chloro-1H-indazol-5-yl)-N^5-(4-cyanophenyl)-6,7-dihydropyrazolo[1,5-a]pyrazine-3,5(4H)-dicarboxamide] | 0.01 to 10 nM |
| NC(=O)c1c(-c2ccc(F)c(Cl)c2)nn2c1CN(C(=O)Nc1ccc3ccncc3c1)CC2 [Compound 196, 2-(3-Chloro-4-fluorophenyl)-N^5-(isoquinolin-7-yl)-6,7-dihydropyrazolo[1,5-a] pyrazine-3,5(4H)-dicarboxamide] | 0.01 to 10 nM |
| CN(C)c1cc(Cl)cc(-c2nn3c(c2C(N)=O)CN(C(=O)Nc2ccc(C#N)cc2)CC3)c1 [Compound 265, 2-(3-Chloro-5-(dimethylamino)phenyl)-N^5-(4-cyanophenyl)-6,7-dihydropyrazolo[1,5-a]pyrazine-3,5(4H)-dicarboxamide] | 0.01 to 10 nM |

Now from value to compound:

| IC50 | Compound |
| --- | --- |
| 0.01 to 10 nM | N#Cc1ccc(NC(=O)N2Cc3c(C(N)=O)c(-c4ccc(F)c(Cl)c4)nn3[C@H](CF)C2)cc1F [Compound A16, (S)-2-(3-Chloro-4-fluorophenyl)-N^5-(4-cyano-3-fluorophenyl)-7-(fluoromethyl)-6,7-dihydropyrazolo[1,5-a]pyrazine-3,5(4H)-dicarboxamide] |
| 0.01 to 10 nM | N#Cc1ccc(NC(=O)N2Cc3c(C(N)=O)c(-c4ccc(F)c(Cl)c4)nn3[C@@H](C(F)F)C2)cc1 [Compound A21, (R)-2-(3-Chloro-4-fluorophenyl)-N^5-(4-cyanophenyl)-7-(difluoromethyl)-6,7-dihydropyrazolo[1,5-a]pyrazine-3,5(4H)-dicarboxamide] |
| 0.01 to 10 nM | CC1CN(C(N)=O)Cc2c(C(=O)NC(C)(C)C)c(-c3ccc(Cl)c(Cl)c3)nn21 (stereo not shown) [Compound A33, N-(tert-Butyl)-2-(3,4-dichlorophenyl)-7-methyl-6,7-dihydropyrazolo[1,5-a]pyrazine-3,5(4H)-dicarboxamide] |
| 0.01 to 10 nM | N#CC1(c2ccc(NC(=O)N3CCn4nc(-c5ccc(F)c(Cl)c5)c(C(N)=O)c4C3)cc2)CC1 [Compound A54, 2-(3-Chloro-4-fluorophenyl)-N^5-(4-(1-cyanocyclopropyl)phenyl)-6,7-dihydropyrazolo[1,5-a]pyrazine-3,5(4H)-dicarboxamide] |
| 0.01 to 10 nM | N#Cc1ccc(NC(=O)N2Cc3c(C(N)=O)c(-c4ccc(F)c(Cl)c4)nn3[C@@H](CF)C2)cc1F [Compound A17, (R)-2-(3-Chloro-4-fluorophenyl)-N^5-(4-cyano-3-fluorophenyl)-7-(fluoromethyl)-6,7-dihydropyrazolo[1,5-a]pyrazine-3,5(4H)-dicarboxamide] |
| 0.01 to 10 nM | N#Cc1ccc(NC(=O)N2Cc3c(C(N)=O)c(-c4ccc(F)c(Cl)c4)nn3C(CF)C2)cc1Cl (single isomer, unassigned) [Compound A15, N^5-(3-Chloro-4-cyanophenyl)-2-(3-chloro-4-fluorophenyl)-7-(fluoromethyl)-6,7-dihydropyrazolo[1,5-a]pyrazine-3,5(4H)-dicarboxamide] |
| 0.01 to 10 nM | N#Cc1ccc(NC(=O)N2Cc3c(C(N)=O)c(-c4ccc(F)c(Cl)c4)nn3[C@H](C(F)F)C2)cc1 [Compound A20, (S)-2-(3-Chloro-4-fluorophenyl)-N^5-(4-cyanophenyl)-7-(difluoromethyl)-6,7-dihydropyrazolo[1,5-a]pyrazine-3,5(4H)-dicarboxamide] |

same assay, conditions: CK1ε (IC50, nM)

| Compound | IC50 |
| --- | --- |
| CCC1CN(C(=O)Nc2ccc(C#N)cc2)Cc2c(C(N)=O)c(-c3ccc(F)c(Cl)c3)nn21 (single isomer, unassigned) [Compound A68, 2-(3-Chloro-4-fluorophenyl)-N^5-(4-cyanophenyl)-7-ethyl-6,7-dihydropyrazolo[1,5-a]pyrazine-3,5(4H)-dicarboxamide] | 0.01 to 10 nM |

same assay, conditions: read-out: CK1ε (IC50)

| Compound | IC50 |
| --- | --- |
| CCC1CN(C(=O)Nc2ccc(C#N)cc2)Cc2c(C(N)=O)c(-c3ccc(F)c(Cl)c3)nn21 (single isomer, unassigned) [Compound A69, 2-(3-Chloro-4-fluorophenyl)-N^5-(4-cyanophenyl)-7-ethyl-6,7-dihydropyrazolo[1,5-a]pyrazine-3,5(4H)-dicarboxamide] | 0.01 to 10 nM |
| N#Cc1ccc(NC(=O)N2CCn3nc(-c4cnc(F)c(Cl)c4)c(C(N)=O)c3C2)cc1Cl [Compound 296, N^5-(3-Chloro-4-cyanophenyl)-2-(5-chloro-6-fluoropyridin-3-yl)-6,7-dihydropyrazolo[1,5-a] pyrazine-3,5(4H)-dicarboxamide] | 0.01 to 10 nM |
